Consider 16 molecules from US20200339604A1, “PYRAZOLOPYRIMIDINE COMPOUNDS AS JAK INHIBITORS” (Genentech, Inc., priority 2018, published 2020).

pIC50, pKi: −log10 of the molar value. Read-outs that look alike come from different tables or passages of the source.

Experiment [1] addresses T1, isolated recombinant JAK1 kinase domain (Homo sapiens, UniProt P23458).
T1 construct: isolated recombinant JAK1 and JAK2 kinase domain
Description: JAK enzyme assay, JAK1 kinase domain (Caliper LabChip). To be noted: 1.5 nM JAK1, ATP 25 μM, Morrison tight binding model. Type of experiment: biochemical. As for the experimental part: (§1) JAK Enzyme Assays were Carried Out as Follows:
(§2) The activity of the isolated recombinant JAK1 and JAK2 kinase domain was measured by monitoring phosphorylation of a peptide derived from JAK3 ([…] fluorescently labeled on the N-terminus with 5-carboxyfluorescein) using the Caliper LabChip® technology (Caliper Life Sciences, Hopkinton, Mass.). To determine inhibition constants (K), compounds were diluted serially in DMSO and added to 50 μL kinase reactions containing purified enzyme (1.5 nM JAK1, or 0.2 nM JAK2), 100 mM HEPES buffer (pH 7.2), 0.015% Brij-35, 1.5 μM peptide substrate, ATP (25 μM), 10 mM MgCl2, 4 mM DTT at a final DMSO concentration of 2%.
(§3) Reactions were incubated at 22° C. in 384-well polypropylene microtiter plates for 30 minutes and then stopped by addition of 25 µL of an EDTA containing solution (100 mM HEPES buffer (pH 7.2), 0.015% Brij-35, 150 mM EDTA), resulting in a final EDTA concentration of 50 mM. After termination of the kinase reaction, the proportion of phosphorylated product was determined as a fraction of total peptide substrate using the Caliper LabChip® 3000 according to the manufacturer's specifications. K values were then determined using the Morrison tight binding model (Morrison, J. F., Biochim. Biophys. Acta. 185:269-296 (1969); William, J. W. and Morrison, J. F., Meth. Enzymol., 63:437-467 (1979)) modified for ATP-competitive inhibition [Ki=Ki, app/(1+[ATP]/Km,app)].

Experiment [2] relates to JAK1-dependent STAT6 phosphorylation downstream of IL-13 stimulation, BEAS-2B human bronchial epithelial cells. The experiment can be described thus: JAK1 pathway assay in cell lines: IL-13 stimulated STAT6 phosphorylation in BEAS-2B cells (MSD). Type of experiment: cell-based. The note with it: IL-13 stimulation 15 min at EC90, read-out: IL-13 p-STAT6 BEAS-2B IC50. The protocol: JAK1 Pathway Assay in Cell Lines was Carried Out as Follows:
Inhibitor potency (EC50) was determined in cell-based assays designed to measure JAK1 dependent STAT phosphorylation. As noted above, inhibition of IL-4, IL-13, and IL-9 signaling by blocking the Jak/Stat signaling pathway can alleviate asthmatic symptoms in pre-clinical lung inflammation models (Mathew et al., 2001, J Exp Med 193(9): 1087-1096; Kudlacz et. al., 2008, Eur J. Pharmacol 582(1-3): 154-161).
In one assay approach, TF-1 human erythroleukemia cells obtained from the American Type Culture Collection (ATCC; Manassas, Va.) were used to measure JAK1-dependent STAT6 phosphorylation downstream of IL-13 stimulation. Prior to use in the assays, TF-1 cells were starved of GM-CSF overnight in OptiMEM medium (Life Technologies, Grand Island, N.Y.) supplemented with 0.5% charcoal/dextran stripped fetal bovine serum (FBS), 0.1 mM non-essential amino acids (NEAA), and 1 mM sodium pyruvate. The assays were run in 384-well plates in serum-free OptiMEM medium using 300,000 cells per well. In a second assay approach, BEAS-2B human bronchial epithelial cells obtained from ATCC were plated at 100,000 cells per well of a 96-well plate one day prior to the experiment. The BEAS-2B assay was run in complete growth medium (bronchial epithelial basal medium plus bulletkit; Lonza; Basel, Switzerland).
Test compounds were serially diluted 1:2 in DMSO and then diluted 1:50 in medium just before use. Diluted compounds were added to the cells, for a final DMSO concentration of […], and incubated for 30 m (for the TF-1 assay) or […] (for the BEAS-2B assay) at 37° C. Then, cells were stimulated with human recombinant cytokine at their respective EC90 concentrations, as previously determined for each individual lot. Cells were stimulated with IL-13 (R&D Systems, Minneapolis, Minn.) for 15 min at 37° C. The TF-1 cell reactions were stopped by the direct addition of 10× lysis buffer (Cell Signaling Technologies, Danvers, Mass.), whereas the BEAS-2B cell incubations were halted by the removal of medium and addition of 1× lysis buffer. The resultant samples were frozen in the plates at −80° C. Compound mediated inhibition of STAT6 phosphorylation was measured in the cell lysates using MesoScale Discovery (MSD) technology (Gaithersburg, Md.).

Experiment [3] addresses T2, isolated recombinant JAK2 kinase domain (Homo sapiens, UniProt O60674).
T2 construct: isolated recombinant JAK1 and JAK2 kinase domain
Description: JAK enzyme assay, JAK2 kinase domain (Caliper LabChip). Type of experiment: biochemical. The note with it: 0.2 nM JAK2, ATP 25 μM, Morrison tight binding model. As for the experimental part:
as §1, §2, §3

T2 sequence (O60674 849-1124 limits assumed): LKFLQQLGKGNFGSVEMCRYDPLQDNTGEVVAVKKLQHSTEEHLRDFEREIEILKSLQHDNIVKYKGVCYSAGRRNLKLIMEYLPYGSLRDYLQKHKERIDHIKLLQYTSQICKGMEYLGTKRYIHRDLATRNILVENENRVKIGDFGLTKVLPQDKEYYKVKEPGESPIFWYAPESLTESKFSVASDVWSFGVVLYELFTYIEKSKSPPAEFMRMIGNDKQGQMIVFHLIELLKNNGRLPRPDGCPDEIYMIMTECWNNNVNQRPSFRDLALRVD
T1 sequence (P23458 875-1153 limits assumed): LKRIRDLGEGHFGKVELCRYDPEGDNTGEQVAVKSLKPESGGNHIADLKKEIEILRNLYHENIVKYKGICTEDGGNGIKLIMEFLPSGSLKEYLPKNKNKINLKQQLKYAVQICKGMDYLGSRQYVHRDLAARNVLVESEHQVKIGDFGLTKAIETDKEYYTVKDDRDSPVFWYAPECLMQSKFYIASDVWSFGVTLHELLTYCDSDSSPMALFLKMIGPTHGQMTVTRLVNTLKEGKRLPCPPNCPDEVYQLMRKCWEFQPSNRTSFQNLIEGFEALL

What is called pKi is the Ki on a negative log10 scale, so that one unit is a factor of ten. The pIC50 is −log10 of the IC50, conventionally taken in molar units. Regarding `O=C(Nc1cn(C2CCCCC2=O)nc1-c1cc(Cl)ccc1OC(F)F)c1cnn2cccnc12` (racemic) [Example 1, N-[3-[5-chloro-2-(difluoromethoxy)phenyl]-1-(2-oxocyclohexyl)pyrazol-4-yl] pyrazolo [1,5-a] pyrimidine-3-carboxamide], the figures for the negative-log Ki (pKi) in experiment [1] and in experiment [3] were 8.96 and 8.85, respectively. Also, in experiment [2] (Homo sapiens, BEAS-2B, […]), the pIC50 is 7.48.
`CN1CCC(n2cc(NC(=O)c3cnn4cccnc34)c(-c3cc(Cl)c(C#N)cc3OC(F)F)n2)C1=O` (racemic) [Example 22, N-[3-[5-chloro-4-cyano-2-(difluoromethoxy)phenyl]-1-(1-methyl-2-oxo-pyrrolidin-3-yl)pyrazol-4-yl]pyrazolo[1,5-a]pyrimidine-3-carboxamide]: the pKi was 8.60 in experiment [1] and 8.40 in experiment [3]. The pIC50 in experiment [2] (Homo sapiens, BEAS-2B, […]) was 7.01.
For the molecule `O=C(Nc1cn(C2CCOC2=O)nc1-c1cc(Cl)ccc1OC(F)F)c1cnn2cccnc12` (racemic) [Example 25, N-[3-[5-chloro-2-(difluoromethoxy)phenyl]-1-(2-oxotetrahydrofuran-3-yl)pyrazol-4-yl]pyrazolo[1,5-a]pyrimidine-3-carboxamide; formic acid], the pKi in experiment [1] is 9.43; in experiment [3], 9.68. The pIC50 in experiment [2] (Homo sapiens, BEAS-2B, […]) is 7.72.
With `O=C(Nc1cn(C2CCCC2=O)nc1-c1cc(Cl)ccc1OC(F)F)c1cnn2cccnc12` (racemic) [Example 35, N-[3-[5-chloro-2-(difluoromethoxy)phenyl]-1-(2-oxocyclopentyl)pyrazol-4-yl]pyrazolo[1,5-a]pyrimidine-3-carboxamide], the pKi was 9.10 in experiment [1] and 9.35 in experiment [3]. For the same molecule, the pIC50 in experiment [2] (Homo sapiens, BEAS-2B, […]) was 7.80.
`O=C(Nc1cn([C@H]2CCNC2=O)nc1-c1cc(Cl)ccc1OC(F)F)c1cnn2cccnc12` (single isomer, unassigned) [Example 4, N-[3-[5-chloro-2-(difluoromethoxy)phenyl]-1-(2-oxopyrrolidin-3-yl)pyrazol-4-yl]pyrazolo[1,5-a]pyrimidine-3-carboxamide]: the pKi was 9.11 in experiment [1] and 9.40 in experiment [3]. In addition, the pIC50 in experiment [2] (Homo sapiens, BEAS-2B, […]) is 7.62.
With `O=C(Nc1cn(C2CCNC2=O)nc1-c1cc(Cl)ccc1OC(F)F)c1cnn2cccnc12` (single isomer, unassigned) [Example 5, N-[3-[5-chloro-2-(difluoromethoxy)phenyl]-1-(2-oxopyrrolidin-3-yl)pyrazol-4-yl]pyrazolo[1,5-a]pyrimidine-3-carboxamide], the pKi in experiment [1] is 8.74; in experiment [3], 9.32. Besides, the pIC50 in experiment [2] (Homo sapiens, BEAS-2B, […]) is 7.40.
On to `CSc1ccc(OC(F)F)c(-c2nn(C3CCN(C)C3=O)cc2NC(=O)c2cnn3cccnc23)c1` (single isomer, unassigned) [Example 6, N-[3-[2-(difluoromethoxy)-5-methylsulfanyl-phenyl]-1-(1-methyl-2-oxo-pyrrolidin-3-yl)pyrazol-4-yl]pyrazolo[1,5-a]pyrimidine-3-carboxamide], for which the pKi was 9.74 in experiment [1] and 9.62 in experiment [3]. Moreover, in experiment [2], the pIC50 is 7.96.
In the case of `CSc1ccc(OC(F)F)c(-c2nn(C3CCN(C)C3=O)cc2NC(=O)c2cnn3cccnc23)c1` (single isomer, unassigned) [Example 7, N-[3-[2-(difluoromethoxy)-5-methylsulfanyl-phenyl]-1-(1-methyl-2-oxo-pyrrolidin-3-yl)pyrazol-4-yl]pyrazolo[1,5-a]pyrimidine-3-carboxamide], the figures for the negative-log Ki (pKi) in experiment [1] and in experiment [3] were 9.08 and 9.51, respectively. In experiment [2], the pIC50 was 7.38.
Take `CN1CCC(n2cc(NC(=O)c3cnn4cccnc34)c(-c3cc(OC(F)F)ccc3OC(F)F)n2)C1=O` (single isomer, unassigned) [Example 8, N-[3-[2,5-bis(difluoromethoxy)phenyl]-1-(1-methyl-2-oxo-pyrrolidin-3-yl)pyrazol-4-yl]pyrazolo[1,5-a]pyrimidine-3-carboxamide]: the figures for the pKi in experiment [1] and in experiment [3] were 9.52 and 9.08, respectively. Moreover, the pIC50 in experiment [2] was 7.70.
On the same counts, the results for `CN1CCC(n2cc(NC(=O)c3cnn4cccnc34)c(-c3cc(OC(F)F)ccc3OC(F)F)n2)C1=O` (single isomer, unassigned) [Example 9, N-[3-[2,5-bis(difluoromethoxy)phenyl]-1-(1-methyl-2-oxo-pyrrolidin-3-yl)pyrazol-4-yl]pyrazolo[1,5-a]pyrimidine-3-carboxamide] are 8.68, 8.96 and 7.17.
On to `CN1CCC(n2cc(NC(=O)c3cnn4cccnc34)c(-c3cc4c(cc3OC(F)F)NCCS4)n2)C1=O` (single isomer, unassigned) [Example 12], for which the figures for the negative-log Ki (pKi) in experiment [1] and in experiment [3] were 9.82 and 9.96, respectively.
As for `O=C(Nc1cn(C2CCN(CCN3CCOCC3)C2=O)nc1-c1cc(Cl)ccc1OC(F)F)c1cnn2cccnc12` (single isomer, unassigned) [Example 15, N-[3-[5-chloro-2-(difluoromethoxy)phenyl]-1-[1-(2-morpholinoethyl)-2-oxo-pyrrolidin-3-yl]pyrazol-4-yl]pyrazolo[1,5-a]pyrimidine-3-carboxamide], the pKi was 8.36 in experiment [1] and 9.00 in experiment [3].
For `O=C(Nc1cn(C2CCOC2=O)nc1-c1cc2c(cc1OC(F)F)NCCS2)c1cnn2cccnc12` (single isomer, unassigned) [Example 33, N-[3-[6-(difluoromethoxy)-3,4-dihydro-2H-1,4-benzothiazin-7-yl]-1-(2-oxotetrahydrofuran-3-yl)pyrazol-4-yl]pyrazolo[1,5-a]pyrimidine-3-carboxamide], the pKi was 9.77 in experiment [1] and 10.02 in experiment [3].
`O=C(Nc1cn(C2CCOC2=O)nc1-c1cc2c(cc1OC(F)F)NCCS2)c1cnn2cccnc12` (single isomer, unassigned) [Example 34, N-[3-[6-(difluoromethoxy)-3,4-dihydro-2H-1,4-benzothiazin-7-yl]-1-(2-oxotetrahydrofuran-3-yl)pyrazol-4-yl]pyrazolo[1,5-a]pyrimidine-3-carboxamide]: the pKi in experiment [1] is 10.04; in experiment [3] it was 10.25.
As for `O=C(Nc1cn(C2CCOC2=O)nc1-c1cc2c(cc1OC(F)F)NCCO2)c1cnn2cccnc12` (single isomer, unassigned) [Example 38, N-[3-[6-(difluoromethoxy)-3,4-dihydro-2H-1,4-benzoxazin-7-yl]-1-(2-oxotetrahydrofuran-3-yl)pyrazol-4-yl]pyrazolo[1,5-a]pyrimidine-3-carboxamide], the pKi in experiment [1] was 9.22; in experiment [3] it was 9.38.
As for `O=C(Nc1cn(C2CCOC2=O)nc1-c1cc2c(cc1OC(F)F)NCCO2)c1cnn2cccnc12` (single isomer, unassigned) [Example 39, N-[3-[6-(difluoromethoxy)-3,4-dihydro-2H-1,4-benzoxazin-7-yl]-1-(2-oxotetrahydrofuran-3-yl)pyrazol-4-yl]pyrazolo[1,5-a]pyrimidine-3-carboxamide; formic acid], the pKi in experiment [1] was 9.49; in experiment [3], 9.54.
